Entries after “also recorded” stand apart in the source; their conditions may differ.

Experimental findings from paper PMC4187121, “Flexible Enantioselectivity of Tryptophanase Attributable to Benzene Ring in Heterocyclic Moiety of D-Tryptophan” (Life : Open Access Journal, 2012) are described below.

The target in test [1] is T1, tryptophanase (Escherichia coli, UniProt P0A853).
T1 construct: purchased Sigma-Aldrich Co. (St. Louis, MO, USA)
Briefly: L-tryptophan degradation by tryptophanase, kinetic and inhibition analysis (indole formation, Ehrlich reagent). In kind it is biochemical, E. coli. The conditions noted are these: for effect on L-tryptophan degradation: in the absence and presence of DAP; for Ki: read-out: Inhibition const. Ki. The method, then:
(§1) When tryptophanase degraded L-tryptophan, all reaction mixtures included 0.2 mM of pyridoxal 5′-phosphate and 0.23 μM of tryptophanase in 100 mM potassium phosphate buffer of pH 8.3. DAP concentrations were prepared to the required concentrations of 0, 0.6, 1.2, 1.9 or 3.1 M. L-tryptophan. The reaction mixture was prepared to a concentration of 98, 108, 128, 137, 147, 167, 196, 225, 245, 294, 343, 392, 490, 680 or 980μM for kinetic analyses. Reactions were performed at 37 °C for 30 min in a Dry Thermo Unit DTU-1B (Taitec, Tokyo, Japan). Although D-tryptophan in addition to L-tryptophan was also degraded into indole in the presence of DAP, an indole production amount from D-tryptophan was neglected at this reaction temperature and time because the catalytic efficiency for D-tryptophan was 0.3% of that for L-tryptophan. On the other hand, the reaction condition of D-tryptophan degradation differed in several ways from that of L-tryptophan degradation. Each concentration of pyridoxal 5′-phosphate and tryptophanase was 1.2 mM and 0.92μM, and additionally reaction temperature and time was 55 °C and 2 h, respectively. All the other reaction conditions were the same as in the L-tryptophan degradation.
(§2) The total volume of the reaction mixture was 2 mL per tube. The reaction was stopped by adding 2 mL of n-butanol, which was vigorously mixed and then immediately centrifuged at approximately 1,000 G for 10 min. After centrifugation, the reaction mixture was separated into two layers of butanol and aqueous solutions in which indole was equally distributed. The supernatant butanol layer was extracted to be mixed with an equal volume of Ehrlich reagent, then colored red at 60 °C for 30 min in Dry Thermo Unit. […] Tryptophanase activity was assayed in triplicate at the same substrate concentration and then averaged. Initial velocity was computed based on the averaged value.
(§3) Initial velocities were defined by indole that formed within 1 minute after 1 mg of tryptophanase was added. Then the reciprocal of (initial velocity/[E] (enzyme concentration)) (ordinate) versus the reciprocal of substrate concentration (abscissa) was drawn for each concentration of L- or D-tryptophan. These double-reciprocal plots were drawn based on the least squares method to calculate kinetic parameters. Kcatwas determined from the reciprocal of the intercepts of these double-reciprocal plots, and the Michaelis constant Km from substrate concentration at 1/v = 0 in the absence of inhibitor. In noncompetitive inhibition, two inhibition constants of Ki (=[E][I]/[EI], E: enzyme; I: inhibitor; EI: enzyme-inhibitor complex) and Ki' (=[ES][I]/[ESI], ES: enzyme-substrate complex; ESI: enzyme-substrate-inhibitor complex) were determined from the slopes and from the intercepts, respectively. In the mixed type inhibition, Ki and Ki' were determined from x and y coordinates of the fixed point in the second quadrant.

Test [2] concerns the target T1, tryptophanase. Briefly: D-tryptophan degradation by tryptophanase in the presence of 3.1 M DAP, kinetic and inhibition analysis. In kind it is biochemical, E. coli. The conditions noted are these: for effect on D-tryptophan degradation: in the presence of 3.1 M DAP. The method, then:
as §1, §2, §3

The mark [3] stands for this setting: substrate L-Trp, DAP 0 M (Table 2).
The mark [4] stands for this setting: substrate L-Trp, DAP 0.6 M (Table 2).
Where [5] appears, read: substrate L-Trp, DAP 1.2 M (Table 2).
Setting [6] is: inhibitor of D-tryptophan degradation, 3.1 M DAP.
The mark [7] stands for this setting: inhibitor of L-tryptophan degradation, DAP 0 M.
[8] abbreviates: inhibitor of L-tryptophan degradation, DAP 0.6 M.
The mark [9] stands for this setting: inhibitor of L-tryptophan degradation, DAP 1.2 M.
Setting [10] is: inhibitor of L-tryptophan degradation, DAP 1.9 M.

T1 sequence (P0A853 whole entry): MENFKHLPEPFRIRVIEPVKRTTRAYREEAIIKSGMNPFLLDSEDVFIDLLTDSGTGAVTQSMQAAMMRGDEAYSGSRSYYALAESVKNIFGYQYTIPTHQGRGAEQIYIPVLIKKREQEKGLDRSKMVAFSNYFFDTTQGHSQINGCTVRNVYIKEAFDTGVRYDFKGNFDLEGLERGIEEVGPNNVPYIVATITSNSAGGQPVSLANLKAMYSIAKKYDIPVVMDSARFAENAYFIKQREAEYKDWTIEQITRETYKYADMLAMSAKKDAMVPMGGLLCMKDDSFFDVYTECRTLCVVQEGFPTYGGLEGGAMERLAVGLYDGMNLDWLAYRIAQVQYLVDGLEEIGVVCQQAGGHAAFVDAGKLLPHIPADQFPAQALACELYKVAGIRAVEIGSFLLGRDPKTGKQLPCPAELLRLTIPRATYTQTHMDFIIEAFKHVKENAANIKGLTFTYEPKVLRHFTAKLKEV

For the compound `N[C@H](Cc1ccccc1)C(=O)O` [D-phenylalanine], at tryptophanase [1], the “effect on L-tryptophan degradation” value is listed as “no effect”. Further, the “effect on D-tryptophan degradation” value on tryptophanase [2] was “little”.
Regarding `O=C(O)C(=O)Cc1c[nH]c2ccccc12` [indole pyruvate], the “Ki, fold stronger than for pyruvate” value on tryptophanase [1] (L-tryptophan degradation) worked out at 15 fold. The results for the Inhibition type entry on tryptophanase [1] (setting [3]), on tryptophanase [1] (setting [4]) and on tryptophanase [1] (setting [5]) were “competitive”, “mixed” and “noncompetitive”, respectively. Further, the Ki at tryptophanase [1] (setting [3]), on tryptophanase [1] (setting [4]) and at tryptophanase [1] (setting [5]) was 200 µM in each case. Moreover, the “Inhibition const. Ki'” value at tryptophanase [1] (setting [4]) came out at 300 µM; at tryptophanase [1] (setting [5]) it was 200 µM.
For `N[C@@H](Cc1c[nH]c2ccccc12)C(=O)O` [L-tryptophan], the “reduced values of kcat compared to the values in the absence of DAP” value at tryptophanase [1] (L-tryptophan degradation in the presence of DAP) is 18–45%.
Regarding `N[C@H](Cc1c[nH]cn1)C(=O)O` [D-histidine], the “effect on L-tryptophan degradation” value on tryptophanase [1] was “no effect; also recorded: did not interact”. At tryptophanase [2], the “effect on D-tryptophan degradation” value is “inhibited”. In addition, on tryptophanase [2] (setting [6]), the Inhibition type result is reported as “competitively inhibited” and the Ki amounted to 400 µM.
On to `N[C@H](Cc1ccc(O)cc1)C(=O)O` [D-tyrosine], for which the “effect on L-tryptophan degradation” value at tryptophanase [1] is “no effect”. Besides, at tryptophanase [2], the “effect on D-tryptophan degradation” value was “no effect”.
For the compound `N.N.O=P(O)(O)O` [DAP, diammoniumhydrogen phosphate], the Inhibition type result on tryptophanase [1] (DAP as inhibitor of L-tryptophan degradation) was “noncompetitive inhibitor”.
`N[C@H](Cc1c[nH]c2ccccc12)C(=O)O` [D-tryptophan]: the “catalytic efficiency, percent of that for L-tryptophan” value at tryptophanase [1] (in the presence of DAP, 37 °C, 30 min) was 0.3%. Besides, the Inhibition type entry on tryptophanase [1] (setting [7]) is recorded as “competitive inhibitor”; at tryptophanase [1] (setting [8]), “mixed”; at tryptophanase [1] (setting [9]) it was “mixed”; at tryptophanase [1] (setting [10]), “mixed”; on tryptophanase [1] (inhibitor of L-tryptophan degradation, DAP 3.1 M) it was “noncompetitive inhibition type”. Moreover, the inhibition constant Ki is 21000 µM at tryptophanase [1] (setting [7]), 25000 µM at tryptophanase [1] (setting [8]), 30000 µM on tryptophanase [1] (setting [9]) and 38000 µM on tryptophanase [1] (setting [10]). On tryptophanase [1] (with increasing DAP concentrations (0 to 3.1 M), L-tryptophan degradation), the “Ki/Ki'” value lay in the range of 0 to 1.0.
For the compound `CC(=O)C(=O)O` [potassium pyruvate], at tryptophanase [1] (setting [3]), the Inhibition type entry was “competitively inhibited; also recorded: competitive” and the Ki was determined as 3000 µM.
